experiment: Human HepG2 cell viability assay in 384 well format; format: toxicity, cell-based; parameters: dose 125 nL, time 70.5 hour; cytotoxicity at 70.5 h: concentration not given beside the values; settings: HepG2 cells, read-out: Inhibition

In order of falling cytotoxicity at 70.5 h:
1. COc1c(CNCc2ccc(C(=O)N(C)C(C)C)cc2)c(C)nn1C  34.2%
2. Cc1cnn(-c2cccc(N3CCCCC3)n2)c1  15.7%
3. OC1CN(Cc2ccccc2)CCN(c2ccncc2)C1 (configuration not stated)  11.5%
4. O=C(CC1CC1)N1CCC2(CC1)C(=O)NCCN2Cc1ccccc1  10.6%
5. Cc1c(Br)cccc1C(=O)NCC1CCNCC1  8.92%
6. Cn1nc(C2CCCN(Cc3cccs3)C2)c2nccnc21 (configuration not stated)  3.16%
7. O=C(Nc1nc2c(s1)CN(S(=O)(=O)C1CC1)CC2)c1c(F)cccc1F  3.16%
8. Cn1ccnc1CN1CCN(CC(=O)NCc2ccccc2F)CC1  1.39%
9. Cc1ccc(C)c(CN2C[C@H]3CC[C@@H]2CN(C(=O)c2cccnc2)C3)c1  1.01%
10. O=C(NCCN1CCCCC1)c1ccn(-c2ccc(F)cc2)n1  0.39%
11. CSCC(CCO)NC(=O)Nc1cc(C)ccc1C (configuration not stated)  0.113%
12. O=C(c1cc(F)cc(Cl)c1)N1CCN(CCO)[C@@H]2CS(=O)(=O)C[C@@H]21  -0.458%
13. CN(C)CC1CCN(Cc2nccn2CC(F)(F)F)CC1  -0.976%
14. Cc1cccc(C(=O)NCCNCC2CNc3ccnn3C2)c1 (configuration not stated)  -1.43%
15. O=C(NCc1ccccn1)[C@@]12CCO[C@@H]1CCN(C1CCCC1)C2  -1.56%
16. Cc1c(Br)cccc1CNC1(CCO)CCOCC1  -1.58%
17. O=C(c1cccnc1N1CCCC1)N1CCOC(c2ccccc2)C1 (configuration not stated)  -2.27%
18. CCN1C(=O)CCC12CCCN(S(=O)(=O)c1cccc(C)c1)CC2 (configuration not stated)  -2.78%
19. Cc1cc(C(=O)Nc2cccn(Cc3ccc(F)cc3)c2=O)on1  -3.03%
20. CC(=O)c1cc(CC(=O)N2CCCC2c2nc(C(C)C)no2)cs1 (configuration not stated)  -3.24%
21. CN1CCO[C@H]2CN(C(=O)c3ccncc3F)C[C@H]21  -3.39%
22. CC(C)N(Cc1nccn1C)C(=O)c1cnc(O)cn1  -3.41%
23. O=S(=O)(c1cc(F)ccc1F)N1CCCC1c1ccncc1 (configuration not stated)  -3.85%
24. O=C(Cc1cccc(F)c1)NCCNc1ncccn1  -4.32%
25. Cc1cc(C(=O)NC2CCc3c(ccc(=O)n3CC(C)C)C2)no1 (configuration not stated)  -4.48%
26. O=S(=O)(c1cccnc1)N1C[C@@H]2COC[C@]2(CN2CCOCC2)C1  -4.52%
27. OCCN1CCN(Cc2coc(-c3ccccc3)n2)CC1  -4.94%
28. N#CCCN(CCC#N)C(=O)CN1CCCC1Cc1cccc(F)c1 (configuration not stated)  -5%
29. CC(C)(C)C(=O)NCc1cnn2ccccc12  -6.45%
30. CCCNC(=O)CN1CCC(NC(=O)c2cc(CC)ccc2O)CC1  -6.46%
31. O=C1NCCCC12CCN(S(=O)(=O)N1CCOCC1)C2 (configuration not stated)  -6.49%
32. c1coc(CN2CCc3onc(Cn4cccc4)c3C2)c1  -6.52%
33. Cc1cc(C(=O)N2CCCCC2c2nc3cc(F)ccc3[nH]2)nn1C (configuration not stated)  -6.6%
34. CC(C)c1nc(C2CCCN2c2ccnc(C3CCCC3)n2)no1 (configuration not stated)  -6.75%
35. O=C(c1cccc(F)c1)N1CC[C@H]2[C@H]1CCN2CC1CCOCC1  -6.77%
36. CS(=O)(=O)N1CC[C@]2(C[C@H](Oc3ccccn3)CO2)C1  -7.19%
37. Cc1csc(N2CCC(NCC3(O)CCc4ccccc43)CC2)n1 (configuration not stated)  -7.31%
38. Cc1nc(C)n(CC2CN(CCc3ccccn3)CCO2)n1 (configuration not stated)  -7.39%
39. O=C(c1cc(F)ccc1O)N1CCN(C2CCSC2)CC1 (configuration not stated)  -8.37%
40. CC(=O)NCCNC(=O)CN1CCCCC1Cn1cncn1 (configuration not stated)  -8.39%
41. O=C(O)c1cc(C2=CCCCC2)cc(S(=O)(=O)NCc2ccccn2)c1  -8.44%
42. COc1ccccc1OCCCN1CCNC1=O  -8.47%
43. O=C(NCc1cccs1)C1CN(C(=O)c2cccs2)CC12CCOCC2 (configuration not stated)  -8.67%
44. CC(C)n1nc2c(cc1=O)CN(CCOc1cccc(C#N)c1)CC2  -8.86%
45. C[C@@H]1CN(C(=O)C2(N3CCCCC3)Cc3ccccc3C2)C[C@H](C)O1  -9%
46. Cc1csc(NC(=O)C(C)Oc2ccc3c(c2)OCO3)n1 (configuration not stated)  -9.39%
47. CN1CCC(c2nnc3ccc(C(=O)N4CCCCC4)cn23)C1 (configuration not stated)  -9.66%
48. COCC(O)CNc1ccc(C#N)cc1C(F)(F)F (configuration not stated)  -9.81%
49. Cc1ccc(OCCSCCn2nc3ccccn3c2=O)cc1  -10.4%
50. Cc1ccc(-n2nnc(CC(=O)N3CCN(C(C)C)CC3)c2C)cc1  -10.5%
51. Cc1cc(C)n(C2CN(CC(O)c3ccc(F)cc3)C2)n1 (configuration not stated)  -10.7%
52. CC(C)Cc1noc(CN2CCN(C(=O)c3cccs3)CC2)n1  -11.2%
53. CSCc1ccc(CNCCCN2CCOCC2)o1  -12.3%
54. Cn1ncc2c(=O)[nH]c(CN(Cc3ccco3)C3CC3)nc21  -16.2%
55. O=C(c1ccnc(N2CCOC(C(F)(F)F)C2)c1)N1CCOCC1 (configuration not stated)  -19.7%
56. CCSCC(C)NCc1cn2ccccc2n1 (configuration not stated)  -20.2%
57. COCCC(=O)N1CCC2(CCN(Cc3ccc(OC)c(F)c3)C2)C1 (configuration not stated)  -93.9%

Reference: ChEMBL document CHEMBL3507680, “University of Dundee, Gates Library screen for HepG2 cell viability”
